Paper PMC6114082, “Synthesis of aminophenylhydroxamate and aminobenzylhydroxamate derivatives and in vitro screening for antiparasitic and histone deacetylase inhibitory activity” (International Journal for Parasitology: Drugs and Drug …, 2018)

Columns and labels:
[1] = test system: L. tropica MHOM/BR/73/5-ASKM; test: Antileishmanial activity, L. tropica promastigotes; format: cell-based, Leishmania tropica; details: Leishmania tropica
Procedure: (§1) The antitrypanosomatid activity of the compounds was ascertained as follows. Leishmania parasites were cultured at 26 °C in SDM-79 medium supplemented with 10% fetal calf serum (FCS), and the antileishmanial activity was determined according to a previously published protocol for LUC-expressing and wild-type Leishmania ([Sereno et al., 2001], [Abbassi et al., 2008]). Trypanosoma brucei gambiense were grown at 26 °C in Cunningham's medium supplemented with 10% FCS, 2 mM GlutaMAX-1 (Gibco, USA), 100 U/ml penicillin, 100 μg/ml streptomycin and […] bovine hemin. The epimastigote form of Trypanosoma cruzi (strain Y cl7 scl2, lineage Tc2) (kindly provided by Philippe Truc and Christian Barnabé, UMR 177 IRD-CIRAD InterTryp, Montpellier, France) were grown at 26 °C in liver infusion tryptose (LIT) medium, supplemented with 10% FCS, 2 mM GlutaMAX™-I, 100 U/ml penicillin, 100 μg/ml streptomycin and bovine hemin (20 mg/l) (Gibco). The antitrypanosomatids activity was determined using a protocol that was initialy set up for wild-type Leishmania ([Abbassi et al., 2008]). To assess the drug activity on Toxoplasma gondii, confluent human foreskin fibroblast (HFF) monolayers were infected with YFP-type I Rh kindly provided by B. Striepen, see ([Striepen et al., 1998]) or Tomato-type II Pru kindly provided by N. Blanchard (Toulouse), expressing parasites at 5 × 10^4 per well, which were then centrifuged for 30 s at 1300 rpm and incubated for 30 min in a water bath at 37 °C to allow invasion. The wells were then washed three times with PBS to eliminate extracellular parasites, and the drugs were added at various concentrations ranging from 1 to 50 μM. After incubation for 24 h at 37 °C in a humidified atmosphere containing 5% CO2, the cells were fixed in 2.5% methanol-free formaldehyde (Tebu-bio)/PBS for 30 min at room temperature. Nuclei were stained with Hoechst 33258 (2 μg/ml, Molecular Probes) for 20 min and then washed three times with water for 10 min each time. The number of infected cells, i.e., cells harboring a parasitophorous vacuole, and the number of parasites per vacuole were determined using an Olympus ScanR microscope ( × 20 objective) and ScanR software. The parasitic index in % compared to the control was calculated as follows: (PI=((number of parasite/100 cells in treated wells) x (% of infected macrophage in treated well)/(number of parasite/100 cells in untreated wells) x (% of infected macrophage in untreated wells))*100).

[2] = test system: L. infantum MHOM/MA/67/ITMAP-264; test: Antileishmanial activity, L. infantum promastigotes (luciferase expressing strain); format: cell-based, Leishmania infantum
Procedure: as §1

[3] = test system: T. brucei MHOM/CI/81/DAL967; test: Antitrypanosomal activity, T. brucei; format: cell-based, Trypanosoma brucei gambiense; details: Trypanosoma brucei
Procedure: as §1

[4] = test system: Pru Type II strain of T. gondii; test: Anti-Toxoplasma activity in infected HFF monolayers, type II Pru strain; format: cell-based, Toxoplasma gondii; details: for IC50: 24 h, type II strain, in HFF
Procedure: as §1, with “The wells were then washed three times with PBS to eliminate extracellular parasites, and the drugs were added at various concentrations ranging from 1 to 50 μM. After incubation for 24 h at 37 °C in a humidified atmosphere containing 5% CO2, the cells were fixed in 2.5% methanol-free formaldehyde (Tebu-bio)/PBS for 30 min at room temperature. Nuclei were stained with Hoechst 33258 (2 μg/ml, Molecular Probes) for 20 min and then washed three times with water for 10 min each time.” left out

[5] = Cytotoxicity, MTT assay, HFF; format: cell-based, human; details: human, HFF cells
Procedure: (§2) The human monocytic cell line THP-1 was cultivated in RPMI medium supplemented with 10% FCS, 2 mM GlutaMAX, 100 U/ml penicillin, and 100 μg/ml streptomycin. HFF cells were cultivated in Dulbecco's modified Eagle's medium (DMEM) with Earle's salts containing 10% FCS, 10 mM HEPES, 1 mM sodium pyruvate, 2 mM GlutaMAX, 100 U/ml penicillin, and 100 μg/ml streptomycin. The THP-1 and HFF cells were maintained in a 5% CO2 incubator at 37 °C. Cytotoxicity was evaluated via the MTT assay, and the IC50 values were calculated using Prism software (Prism 4 for Mac OS X, version 5.0b, December, 2008).

[6] = Cytotoxicity, MTT assay, THP-1; format: cell-based, human; details: human, THP-1 cells (monocytic cell line); MTT assay
Procedure: as §2

THP-1 cells = test: Cytotoxicity, MTT assay, THP-1; format: cell-based, human
Procedure: as §2

[7] = Cytotoxicity, HEPG2 cell line; format: cell-based, human; details: human, HepG2 cells
HEPG2 cells = test: Cytotoxicity, HEPG2 cell line; format: cell-based, human
HDAC 1 = target: T1, HDAC 1 (Homo sapiens, UniProt Q13547); test: Fluorometric HDAC assay, recombinant HDAC1; format: biochemical
T1 construct: purchased Active Motif, Belgium
T1 sequence (Q13547 whole entry): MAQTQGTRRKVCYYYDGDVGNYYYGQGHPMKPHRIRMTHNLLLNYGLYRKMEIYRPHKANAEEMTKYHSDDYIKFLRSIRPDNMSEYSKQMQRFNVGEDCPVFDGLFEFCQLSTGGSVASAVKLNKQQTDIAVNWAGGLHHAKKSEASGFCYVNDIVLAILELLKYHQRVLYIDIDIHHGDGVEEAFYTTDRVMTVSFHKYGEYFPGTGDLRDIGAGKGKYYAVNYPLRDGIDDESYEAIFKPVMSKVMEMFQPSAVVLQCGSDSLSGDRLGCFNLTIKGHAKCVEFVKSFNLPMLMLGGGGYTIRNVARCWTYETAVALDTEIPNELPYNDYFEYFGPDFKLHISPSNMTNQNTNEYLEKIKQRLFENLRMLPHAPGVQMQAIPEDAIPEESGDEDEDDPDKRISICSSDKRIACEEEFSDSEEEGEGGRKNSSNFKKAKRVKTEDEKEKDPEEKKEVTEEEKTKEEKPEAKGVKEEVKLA
Procedure: The HDACi effect against HeLa nuclear extracts and recombinant proteins were measured using a fluorometric HDAC assay kit (Active Motif, Belgium) according to the manufacturer's instructions. Briefly, 30 μL of HeLa nuclear extract (Active Motif, Belgium) or various HDAC recombinant proteins (Active Motif, Belgium) was mixed with 5 μL of a 10 × compound and 10 μL of assay buffer. A negative control containing trichostatin A at a final concentration of 2 μM was analyzed for each independent experiment. A fluorogenic substrate (10 μL) was added, and the reaction was allowed to proceed for 30 min at room temperature and then stopped by the addition of a developer containing trichostatin A. The fluorescence was monitored after 30 min at excitation and emission wavelengths of 360 and 460 nm, respectively.

HDAC 3 = target: T2, HDAC 3 (Homo sapiens, UniProt O15379); test: Fluorometric HDAC assay, recombinant HDAC3; format: biochemical
T2 construct: purchased Active Motif, Belgium
T2 sequence (O15379 whole entry): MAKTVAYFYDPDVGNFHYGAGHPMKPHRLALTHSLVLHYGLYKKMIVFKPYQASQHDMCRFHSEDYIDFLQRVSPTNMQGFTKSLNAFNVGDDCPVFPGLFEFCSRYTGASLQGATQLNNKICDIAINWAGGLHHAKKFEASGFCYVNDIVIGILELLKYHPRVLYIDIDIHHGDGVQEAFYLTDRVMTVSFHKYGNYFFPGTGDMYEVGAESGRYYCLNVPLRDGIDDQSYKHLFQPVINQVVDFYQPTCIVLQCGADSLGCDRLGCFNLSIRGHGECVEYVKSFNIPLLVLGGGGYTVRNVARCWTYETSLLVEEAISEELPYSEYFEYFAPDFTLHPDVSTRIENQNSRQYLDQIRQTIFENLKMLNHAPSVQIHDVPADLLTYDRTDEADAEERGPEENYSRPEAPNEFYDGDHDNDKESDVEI
T2 sequence (O75376 395-489 partner limits assumed): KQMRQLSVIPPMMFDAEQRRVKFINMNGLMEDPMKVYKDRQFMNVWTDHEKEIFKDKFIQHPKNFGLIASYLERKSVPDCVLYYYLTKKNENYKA
Procedure: (§3) The HDACi effect against HeLa nuclear extracts and recombinant proteins were measured using a fluorometric HDAC assay kit (Active Motif, Belgium) according to the manufacturer's instructions. […] A negative control containing trichostatin A at a final concentration of 2 μM was analyzed for each independent experiment.

HDAC 8 = target: T3, HDAC 8 (Homo sapiens, UniProt Q9BY41); test: Fluorometric HDAC assay, recombinant HDAC8; format: biochemical
T3 construct: purchased Active Motif, Belgium
T3 sequence (Q9BY41 1-377): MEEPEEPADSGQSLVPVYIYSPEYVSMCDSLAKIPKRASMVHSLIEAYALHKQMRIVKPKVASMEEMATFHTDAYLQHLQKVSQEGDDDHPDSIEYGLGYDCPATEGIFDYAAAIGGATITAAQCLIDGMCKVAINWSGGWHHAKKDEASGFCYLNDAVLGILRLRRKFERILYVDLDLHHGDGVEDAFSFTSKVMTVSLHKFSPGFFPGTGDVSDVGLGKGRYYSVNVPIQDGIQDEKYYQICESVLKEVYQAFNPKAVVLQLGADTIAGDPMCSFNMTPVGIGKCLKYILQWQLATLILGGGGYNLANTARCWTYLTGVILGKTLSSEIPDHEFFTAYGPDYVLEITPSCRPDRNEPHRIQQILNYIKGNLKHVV
Procedure: as §3

Question: What does the source list for COc1cccc(CC(=O)Nc2ccc(C(=O)NO)cc2)c1 [Compound 363, N-hydroxy-4-[2-(3-methoxyphenyl)acetamido]benzamide]?
Answer: IC50 [1]: > 60 µM; IS^b selectivity index for L. infantum ([2]; IC50 THP-1 / IC50 Leishmania infantum (footnote)): <1; IC50 ([2]; Leishmania infantum, promastigotes, luciferase expressing strain): > 60 µM; IC50 [3]: > 60 µM; IS^a selectivity index for T. gondii, second value marked # ([4]; IC50 HFF / IC50 T. gondii type II Pru strain): 46; IC50 ([4]; Toxoplasma gondii): 2250 nM; IC50 [4]: 2270 nM; IC50 [5]: 105 ± 10.5 µM; IC50 [6]: 3.6 ± 0.5 µM; selectivity index, THP-1 cells vs T. gondii (THP-1 cells): 10; IC50 [7]: > 15 µM; index of selectivity, HEPG2 vs T. gondii tachyzoites (HEPG2 cells): 42; Fold, HDAC 1 (HDAC 1; 363 as compared to SAHA): 2.43; IC50 (HDAC 1; recombinant protein, read-out: rHDAC 1 IC50): 257 ± 50 nM; Fold, HDAC 3 (HDAC 3; 363 as compared to SAHA): 1.06; IC50 (HDAC 3; recombinant protein, read-out: rHDAC 3 IC50): 160 ± 52 nM; Fold, HDAC 8 (HDAC 8; 363 as compared to SAHA): 0.26; IC50 (HDAC 8; recombinant protein, read-out: rHDAC 8 IC50): 863 ± 45 nM
